*1 amine or outer side, *2 acyl side, *3 side chain or, on linkers, in order; H or OH if unused. Where a SMILES comes first, the peptide text is derived from it. Bridges are numbered along the chain shown (N, C = ends). [ ]: non-standard residue; d: D form. The star is where a group is joined. hPhe(3-Cl-4-CF3) = N[C@@H](CCc1ccc(C(F)(F)F)c(Cl)c1)C(=O)O; NPrPhe(4-CF3) = CCCN[C@@H](Cc1ccc(C(F)(F)F)cc1)C(=O)O; X13 = CCCN([C@@H](COC1CCC1)C(=O)[*:2])[*:1]; X8 = CCCN([C@@H](COCCC(C)C)C(=O)[*:2])[*:1]; X35 = CCCN([C@@H](CC(C)C)C(=O)[*:2])[*:1]; NMeGly(cPent) = CN[C@H](C(=O)O)C1CCCC1; NMeD = CN[C@@H](CC(=O)O)C(=O)O; NMeL = CN[C@@H](CC(C)C)C(=O)O; Morpholide = C1CN(*)CCO1; NMeA = CN[C@@H](C)C(=O)O; Aze = O=C(O)[C@@H]1CCN1; Ac4c = NC1(C(=O)O)CCC1; Sar = CNCC(=O)O
Key:
[1] = biological target: GDP-bound NRAS wild-type protein (Homo sapiens, UniProt P01111); assay: Binding to NRAS by surface plasmon resonance (SPR), KD and KD ratio to KRAS; conditions: ratio of KD value for GDP-bound NRAS wild-type protein to KD value for KRAS (SPR)
Sequence of GDP-bound NRAS wild-type protein (P01111 whole entry): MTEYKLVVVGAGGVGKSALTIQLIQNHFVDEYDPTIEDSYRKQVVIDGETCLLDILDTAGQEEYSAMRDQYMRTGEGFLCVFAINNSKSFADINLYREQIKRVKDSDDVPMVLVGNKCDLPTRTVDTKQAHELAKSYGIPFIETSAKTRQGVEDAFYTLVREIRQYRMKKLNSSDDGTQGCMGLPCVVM
Procedure, shortened: (§1)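 Affinity is measured by surface plasmon resonance at 30°C against captured, GDP-loaded RAS carrying a biotinylated Avi tag. Compounds are titrated by single-cycle kinetics, and KD comes from a 1:1 fit.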

HRAS wild-type protein = HRAS wild-type protein (Homo sapiens, UniProt P01112); assay: Binding to HRAS by surface plasmon resonance (SPR), KD and KD ratio to KRAS; conditions: ratio of KD value for HRAS wild-type protein to KD value for KRAS (SPR)
Sequence of HRAS wild-type protein (P01112 whole entry): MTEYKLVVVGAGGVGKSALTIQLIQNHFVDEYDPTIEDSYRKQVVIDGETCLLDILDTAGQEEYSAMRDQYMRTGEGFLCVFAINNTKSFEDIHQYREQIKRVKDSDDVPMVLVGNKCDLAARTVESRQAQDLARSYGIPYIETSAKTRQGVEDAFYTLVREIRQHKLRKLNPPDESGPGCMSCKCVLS
Procedure, shortened: as §1

[2] = system: human lung cancer strain NCI-H441; assay type: cell-based
Procedure, shortened: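 Readout: […] after the ATP-based reagent. Compound: serial dilutions in dimethyl sulfoxide.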

SMILES	NRAS /KRAS [1]	HRAS /KRAS (HRAS wild-type protein)	IC50 [2]
CCO[C@@H]1C[C@H]2C(=O)N(C)C3(CCCC3)C(=O)N(C)[C@@H](C3CCCC3)C(=O)N(C)[C@H](C(=O)N(C)C)CC(=O)N(C)[C@@H](C3CC3)C(=O)N[C@@H]([C@@H](C)CC)C(=O)N(C)CC(=O)N(C)[C@H]3C/C=C\CCN(C3=O)[C@@H](Cc3ccc(C)cc3)C(=O)N(C)CC(=O)N[C@@H](CCc3cc(F)c(C(F)(F)F)c(F)c3)C(=O)N2C1 [PP1808]	A (a compound having 10 or more and less than 20 is denoted as A)	B (a compound having 3 or more and less than 10 is denoted as B)	8.8 nM
CCO[C@@H]1C[C@H]2C(=O)N(C)C3(CCCC3)C(=O)N(C)[C@@H](C3CCCC3)C(=O)N(C)[C@H](C(=O)N(C)C)CC(=O)N(C)[C@@H](CC)C(=O)N[C@@H]([C@@H](C)CC)C(=O)N3CCC[C@H]3C(=O)N(C)[C@H]3C/C=C\CCN(C3=O)[C@@H](Cc3ccc(C)cc3)C(=O)N(C)CC(=O)N[C@@H](CCc3cc(F)c(C(F)(F)F)c(F)c3)C(=O)N2C1 [PP1810]	A (a compound having 10 or more and less than 20 is denoted as A)	B (a compound having 3 or more and less than 10 is denoted as B)	4.6 nM
CC[C@H](C)[C@@H]1NC(=O)[C@H](CC)N(C)C(=O)C[C@@H](C(=O)N(C)C)N(C)C(=O)[C@H](C2CCCC2)N(C)C(=O)C2(CCCC2)N(C)C(=O)[C@@H]2CCCN2C(=O)[C@H](CCc2cc(F)c(C(F)(F)F)c(F)c2)NC(=O)CN(C)C(=O)[C@H](Cc2ccc(C)cc2)N2CC/C=C\C[C@@H](C2=O)N(C)C(=O)[C@@H]2CCCN2C1=O [PP1811]	A (a compound having 10 or more and less than 20 is denoted as A)	B (a compound having 3 or more and less than 10 is denoted as B)	14.3 nM
CC[C@H](C)[C@@H]1NC(=O)[C@H](C2CC2)N(C)C(=O)C[C@@H](C(=O)N(C)C)N(C)C(=O)[C@H](C2CCCC2)N(C)C(=O)C2(CCCC2)N(C)C(=O)[C@@H]2C[C@@H](C)CN2C(=O)[C@H](CCc2cc(F)c(C(F)(F)F)c(F)c2)NC(=O)CN(C)C(=O)[C@H](Cc2ccc(C)cc2)N2CC/C=C\C[C@@H](C2=O)N(C)C(=O)CN(C)C1=O [PP1813]	A (a compound having 10 or more and less than 20 is denoted as A)	B (a compound having 3 or more and less than 10 is denoted as B)	22.6 nM
CC[C@H](C)[C@@H]1NC(=O)[C@H](CC)N(C)C(=O)C[C@@H](C(=O)N(C)C)N(C)C(=O)[C@H](C2CCCC2)N(C)C(=O)C2(CCCC2)N(C)C(=O)[C@@H]2C[C@@H](C)CN2C(=O)[C@H](CCc2cc(F)c(C(F)(F)F)c(F)c2)NC(=O)CN(C)C(=O)[C@H](Cc2ccc(C)cc2)N2CC/C=C\C[C@@H](C2=O)N(C)C(=O)[C@@H]2CCCN2C1=O [PP1814]	A (a compound having 10 or more and less than 20 is denoted as A)	A (a compound having 10 or more and less than 20 is denoted as A)	26.2 nM
CCCN1C(=O)C[C@@H](C(=O)N2CCOCC2)N(C)C(=O)[C@H](C2CCCC2)N(C)C(=O)C2(CCC2)NC(=O)[C@@H]2CCCN2C(=O)[C@H](CCc2ccc(C(F)(F)F)c(Cl)c2)NC(=O)CN(C)C(=O)[C@H](Cc2ccc(C(F)(F)F)cc2)N(CCC)C(=O)CN(C)C(=O)CN(C)C(=O)[C@H](C(C)C)NC(=O)[C@@H]1CC(C)C [PP1815] ([X35]V[Sar][Sar][NPrPhe(4-CF3)][Sar][hPhe(3-Cl-4-CF3)]P[Ac4c][NMeGly(cPent)][NMeD]-Morpholide; lactam N-11)	B (a compound having 3 or more and less than 10 is denoted as B)	B (a compound having 3 or more and less than 10 is denoted as B)	83 nM
CCCN1C(=O)CN(C)C(=O)CN(C)C(=O)[C@H]([C@@H](C)CC)NC(=O)[C@H](CC(C)C)N(C)C(=O)C[C@@H](C(=O)N2CCOCC2)N(C)C(=O)[C@H](C2CCCC2)N(C)C(=O)C2(CCC2)NC(=O)[C@@H]2CCCN2C(=O)[C@H](CCc2ccc(C(F)(F)F)c(Cl)c2)NC(=O)CN(C)C(=O)[C@@H]1COC1CCC1 [PP1816] ([NMeL]I[Sar][Sar][X13][Sar][hPhe(3-Cl-4-CF3)]P[Ac4c][NMeGly(cPent)][NMeD]-Morpholide; lactam N-11)	B (a compound having 3 or more and less than 10 is denoted as B)	C (A compound having a KD ratio of 0.1 or more and less than 3 is denoted as C)	63.8 nM
CCCN1C(=O)CN(C)C(=O)CN(C)C(=O)[C@H]([C@@H](C)CC)NC(=O)[C@H](CC(C)C)N(C)C(=O)C[C@@H](C(=O)N2CCOCC2)N(C)C(=O)[C@H](C2CCCC2)N(C)C(=O)C2(CCC2)NC(=O)[C@@H]2CCCN2C(=O)[C@H](CCc2ccc(C(F)(F)F)c(Cl)c2)NC(=O)CN(C)C(=O)[C@@H]1COCCC(C)C [PP1817] ([NMeL]I[Sar][Sar][X8][Sar][hPhe(3-Cl-4-CF3)]P[Ac4c][NMeGly(cPent)][NMeD]-Morpholide; lactam N-11)	C (A compound having a KD ratio of 0.1 or more and less than 3 is denoted as C)	C (A compound having a KD ratio of 0.1 or more and less than 3 is denoted as C)	20.4 nM
CCCN1C(=O)[C@@H]2CCN2C(=O)[C@H](C)N(C)C(=O)[C@H]([C@@H](C)CC)NC(=O)[C@H](CC(C)C)N(C)C(=O)C[C@@H](C(=O)N2CCOCC2)N(C)C(=O)[C@H](C2CCCC2)N(C)C(=O)C2(CCC2)NC(=O)[C@@H]2CCCN2C(=O)[C@H](CCc2ccc(C(F)(F)F)c(Cl)c2)NC(=O)CN(C)C(=O)[C@@H]1COC1CCC1 [PP1818] ([NMeL]I[NMeA][Aze][X13][Sar][hPhe(3-Cl-4-CF3)]P[Ac4c][NMeGly(cPent)][NMeD]-Morpholide; lactam N-11)	C (A compound having a KD ratio of 0.1 or more and less than 3 is denoted as C)	B (a compound having 3 or more and less than 10 is denoted as B)	74.8 nM
CCCN1C(=O)[C@@H]2CCN2C(=O)[C@H](C)N(C)C(=O)[C@H]([C@@H](C)CC)NC(=O)[C@H](CC(C)C)N(C)C(=O)C[C@@H](C(=O)N(C)C)N(C)C(=O)[C@H](C2CCCC2)N(C)C(=O)C2(CCC2)NC(=O)[C@@H]2CCCN2C(=O)[C@H](CCc2ccc(C(F)(F)F)c(Cl)c2)NC(=O)CN(C)C(=O)[C@@H]1COCCC(C)C [PP1820] ([NMeL]I[NMeA][Aze][X8][Sar][hPhe(3-Cl-4-CF3)]P[Ac4c][NMeGly(cPent)][NMeD]-NMe2; lactam N-11)	C (A compound having a KD ratio of 0.1 or more and less than 3 is denoted as C)	C (A compound having a KD ratio of 0.1 or more and less than 3 is denoted as C)	40.7 nM
CCO[C@@H]1C[C@H]2C(=O)NC3(CCC3)C(=O)N(C)[C@@H](C3CCCC3)C(=O)N(C)[C@H](C(=O)N(C)C)CC(=O)N(C)[C@@H](CC)C(=O)N[C@@H]([C@@H](C)CC)C(=O)N(C)CC(=O)N(C)[C@H]3C/C=C\CCN(C3=O)[C@@H](Cc3ccc(C(F)(F)F)cc3)C(=O)N(C)CC(=O)N[C@@H](CCc3cc(C)c(Cl)c(C)c3)C(=O)N2C1 [PP1821]	A (a compound having 10 or more and less than 20 is denoted as A)	A (a compound having 10 or more and less than 20 is denoted as A)	105 nM
CC[C@H](C)[C@@H]1NC(=O)[C@H](CC)N(C)C(=O)C[C@@H](C(=O)N(C)C)N(C)C(=O)[C@H](C2CCCC2)N(C)C(=O)C2(CCC2)NC(=O)[C@@H]2CCCN2C(=O)[C@H](CCc2cc(C)c(Cl)c(C)c2)NC(=O)CN(C)C(=O)[C@H](Cc2ccc(C(F)(F)F)cc2)N2CC/C=C\C[C@@H](C2=O)N(C)C(=O)CN(C)C1=O [PP1822]	A (a compound having 10 or more and less than 20 is denoted as A)	B (a compound having 3 or more and less than 10 is denoted as B)	107 nM
CCO[C@@H]1C[C@H]2C(=O)NC3(CCCC3)C(=O)N(C)[C@@H](C3CCCC3)C(=O)N(C)[C@H](C(=O)N(C)C)CC(=O)N(C)[C@@H](CC)C(=O)N[C@@H]([C@@H](C)CC)C(=O)N(C)CC(=O)N(C)[C@H]3C/C=C\CCN(C3=O)[C@@H](Cc3ccc(C(F)(F)F)cc3)C(=O)N(C)CC(=O)N[C@@H](CCc3cc(C)c(Cl)c(C)c3)C(=O)N2C1 [PP1823]	A (a compound having 10 or more and less than 20 is denoted as A)	A (a compound having 10 or more and less than 20 is denoted as A)	55.9 nM
CCCN1C(=O)C[C@@H](C(=O)N(C)C)N(C)C(=O)[C@H](C2CCCC2)N(C)C(=O)C2(CCC2)NC(=O)[C@@H]2C[C@@H](OCC)CN2C(=O)[C@H](CCc2cc(F)c(C(F)(F)F)c(F)c2)NC(=O)CN(C)C(=O)[C@H](Cc2ccc(C(F)(F)F)cc2)N2CC/C=C\C[C@@H](C2=O)N(C)C(=O)CNC(=O)[C@H]([C@@H](C)CC)NC(=O)[C@@H]1CC(C)C [PP1826]	A (a compound having 10 or more and less than 20 is denoted as A)	A (a compound having 10 or more and less than 20 is denoted as A)	17.6 nM
CCO[C@@H]1C[C@H]2C(=O)NC3(CC(C)(C)C3)C(=O)N(C)[C@@H](C3CCCC3)C(=O)N(C)[C@H](C(=O)N(C)CC)CC(=O)N(C)[C@H]3CCCC/C=C/c4ccc(cc4)C[C@@H](C(=O)N(C)CC(=O)N[C@@H](CCc4ccc(C(F)(F)F)c(OC)c4)C(=O)N2C1)N1CC/C=C\C[C@@H](C1=O)N(C)C(=O)CN(C)C(=O)[C@H]([C@@H](C)CC)NC3=O [PP1830]	A (a compound having 10 or more and less than 20 is denoted as A)	B (a compound having 3 or more and less than 10 is denoted as B)	4.7 nM

From patent publication EP4603105A1, “PHARMACEUTICAL COMPOSITION CONTAINING CYCLIC COMPOUND HAVING SELECTIVE KRAS INHIBITORY EFFECT AGAINST HRAS AND NRAS” (CHUGAI SEIYAKU KABUSHIKI KAISHA, priority 2022, dated 2024)
